# Data taken from PubChem BioAssay (NCI).
#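 Five concentrations, 48 hours, 96-well plates. Here, GI50 denotes the concentration required for 50% inhibition of growth. TGI: total growth inhibition.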
# Columns and labels:
# Assay in all cases: DTP human tumour cell line panel, 48 h
# RXF 393 renal = tested on: RXF 393 renal
# MDA-MB-468 breast = tested on: MDA-MB-468 breast
# NCI-H522 lung = tested on: NCI-H522 lung
# NCI-H23 lung = tested on: NCI-H23 lung
# SK-OV-3 ovarian = tested on: SK-OV-3 ovarian
# PC-3 prostate = tested on: PC-3 prostate
# HCT-15 colon = tested on: HCT-15 colon
# OVCAR-8 ovarian = tested on: OVCAR-8 ovarian
# HCT-116 colon = tested on: HCT-116 colon
# SK-MEL-5 melanoma = tested on: SK-MEL-5 melanoma
# SNB-19 CNS = tested on: SNB-19 CNS
# CAKI-1 renal = tested on: CAKI-1 renal
# BT-549 breast = tested on: BT-549 breast
# A498 renal = tested on: A498 renal
# HCC-2998 colon = tested on: HCC-2998 colon
# SF-539 CNS = tested on: SF-539 CNS
# SF-268 CNS = tested on: SF-268 CNS
# RPMI-8226 leukemia = tested on: RPMI-8226 leukemia
# OVCAR-4 ovarian = tested on: OVCAR-4 ovarian
# TK-10 renal = tested on: TK-10 renal
# A549 NSCLC = tested on: A549 NSCLC
# 786-0 renal = tested on: 786-0 renal
# OVCAR-5 ovarian = tested on: OVCAR-5 ovarian
# K-562 leukemia = tested on: K-562 leukemia
# OVCAR-3 ovarian = tested on: OVCAR-3 ovarian
# NCI-H226 lung = tested on: NCI-H226 lung
# KM12 colon = tested on: KM12 colon
# M14 melanoma = tested on: M14 melanoma
# COLO 205 colon = tested on: COLO 205 colon
# MALME-3M melanoma = tested on: MALME-3M melanoma
# NCI-H460 lung = tested on: NCI-H460 lung
# DU-145 prostate = tested on: DU-145 prostate
# T-47D breast = tested on: T-47D breast
# MOLT-4 leukemia = tested on: MOLT-4 leukemia
# SF-295 CNS = tested on: SF-295 CNS
# UO-31 renal = tested on: UO-31 renal
# EKVX NSCLC = tested on: EKVX NSCLC
# SN12C renal = tested on: SN12C renal
# ACHN renal = tested on: ACHN renal
# CCRF-CEM leukemia = tested on: CCRF-CEM leukemia
# UACC-62 melanoma = tested on: UACC-62 melanoma
# HOP-92 NSCLC = tested on: HOP-92 NSCLC
# NCI/ADR-RES ovarian = tested on: NCI/ADR-RES ovarian
# U251 CNS = tested on: U251 CNS
# HT29 colon = tested on: HT29 colon
# MDA-MB-435 = tested on: MDA-MB-435
# MCF7 breast = tested on: MCF7 breast
# SK-MEL-28 melanoma = tested on: SK-MEL-28 melanoma
# MDA-MB-231 breast = tested on: MDA-MB-231 breast
# HS 578T breast = tested on: HS 578T breast
# SW-620 colon = tested on: SW-620 colon
# SR leukemia = tested on: SR leukemia
# UACC-257 melanoma = tested on: UACC-257 melanoma
# IGROV1 ovarian = tested on: IGROV1 ovarian
# SK-MEL-2 melanoma = tested on: SK-MEL-2 melanoma
# HL-60(TB) leukemia = tested on: HL-60(TB) leukemia
# HOP-62 NSCLC = tested on: HOP-62 NSCLC
# SNB-75 CNS = tested on: SNB-75 CNS
# LOX IMVI melanoma = tested on: LOX IMVI melanoma
compound,measurement,setting,value
CN1CCN(Cc2ccc(NC(=O)c3cncc(C#Cc4cnc5ccc(N[C@@H]6CCOC6)nn45)c3)cc2C(F)(F)F)CC1,GI50,RXF 393 renal,71.3 nM
same,TGI,RXF 393 renal,217 nM
same,GI50,MDA-MB-468 breast,60 nM
same,TGI,MDA-MB-468 breast,194 nM
same,GI50,NCI-H522 lung,122 nM
same,TGI,NCI-H522 lung,280 nM
same,GI50,NCI-H23 lung,108 nM
same,TGI,NCI-H23 lung,265 nM
same,GI50,SK-OV-3 ovarian,274 nM
same,TGI,SK-OV-3 ovarian,713 nM
same,GI50,PC-3 prostate,161 nM
same,TGI,PC-3 prostate,1160 nM
same,GI50,HCT-15 colon,335 nM
same,TGI,HCT-15 colon,1370 nM
same,GI50,OVCAR-8 ovarian,189 nM
same,TGI,OVCAR-8 ovarian,963 nM
same,GI50,HCT-116 colon,48.6 nM
same,TGI,HCT-116 colon,640 nM
same,GI50,SK-MEL-5 melanoma,193 nM
same,TGI,SK-MEL-5 melanoma,556 nM
same,GI50,SNB-19 CNS,222 nM
same,TGI,SNB-19 CNS,769 nM
same,GI50,CAKI-1 renal,128 nM
same,TGI,CAKI-1 renal,484 nM
same,GI50,BT-549 breast,169 nM
same,TGI,BT-549 breast,631 nM
same,GI50,A498 renal,269 nM
same,TGI,A498 renal,475 nM
same,GI50,HCC-2998 colon,198 nM
same,TGI,HCC-2998 colon,553 nM
same,GI50,SF-539 CNS,19.3 nM
same,TGI,SF-539 CNS,74.2 nM
same,GI50,SF-268 CNS,122 nM
same,TGI,SF-268 CNS,377 nM
same,GI50,RPMI-8226 leukemia,201 nM
same,TGI,RPMI-8226 leukemia,1570 nM
same,GI50,OVCAR-4 ovarian,138 nM
same,TGI,OVCAR-4 ovarian,646 nM
same,GI50,TK-10 renal,245 nM
same,TGI,TK-10 renal,646 nM
same,GI50,A549 NSCLC,138 nM
same,TGI,A549 NSCLC,1010 nM
same,GI50,786-0 renal,235 nM
same,TGI,786-0 renal,712 nM
same,GI50,OVCAR-5 ovarian,202 nM
same,TGI,OVCAR-5 ovarian,618 nM
same,GI50,K-562 leukemia,< 9.7 nM
same,TGI,K-562 leukemia,10.1 µM
same,GI50,OVCAR-3 ovarian,125 nM
same,TGI,OVCAR-3 ovarian,509 nM
same,GI50,NCI-H226 lung,14.4 nM
same,TGI,NCI-H226 lung,218 nM
same,GI50,KM12 colon,< 9.7 nM
same,TGI,KM12 colon,761 nM
same,GI50,M14 melanoma,78.4 nM
same,TGI,M14 melanoma,245 nM
same,GI50,COLO 205 colon,30.1 nM
same,TGI,COLO 205 colon,86.8 nM
same,GI50,MALME-3M melanoma,89.7 nM
same,TGI,MALME-3M melanoma,299 nM
same,GI50,NCI-H460 lung,104 nM
same,TGI,NCI-H460 lung,374 nM
same,GI50,DU-145 prostate,148 nM
same,TGI,DU-145 prostate,557 nM
same,GI50,T-47D breast,323 nM
same,TGI,T-47D breast,3.14 µM
same,GI50,MOLT-4 leukemia,26.6 nM
same,TGI,MOLT-4 leukemia,919 nM
same,GI50,SF-295 CNS,88.8 nM
same,TGI,SF-295 CNS,587 nM
same,GI50,UO-31 renal,1190 nM
same,TGI,UO-31 renal,2930 nM
same,GI50,EKVX NSCLC,120 nM
same,TGI,EKVX NSCLC,383 nM
same,GI50,SN12C renal,34 nM
same,TGI,SN12C renal,271 nM
same,GI50,ACHN renal,256 nM
same,TGI,ACHN renal,1040 nM
same,GI50,CCRF-CEM leukemia,< 9.7 nM
same,TGI,CCRF-CEM leukemia,356 nM
same,GI50,UACC-62 melanoma,156 nM
same,TGI,UACC-62 melanoma,539 nM
same,GI50,HOP-92 NSCLC,27.7 nM
same,TGI,HOP-92 NSCLC,133 nM
same,GI50,NCI/ADR-RES ovarian,2780 nM
same,TGI,NCI/ADR-RES ovarian,17.1 µM
same,GI50,U251 CNS,216 nM
same,TGI,U251 CNS,879 nM
same,GI50,HT29 colon,87.9 nM
same,TGI,HT29 colon,415 nM
same,GI50,MDA-MB-435,113 nM
same,TGI,MDA-MB-435,338 nM
same,GI50,MCF7 breast,51.8 nM
same,TGI,MCF7 breast,518 nM
same,GI50,SK-MEL-28 melanoma,193 nM
same,TGI,SK-MEL-28 melanoma,629 nM
same,GI50,MDA-MB-231 breast,42.3 nM
same,TGI,MDA-MB-231 breast,289 nM
same,GI50,HS 578T breast,28.8 nM
same,TGI,HS 578T breast,398 nM
same,GI50,SW-620 colon,94.4 nM
same,TGI,SW-620 colon,603 nM
same,GI50,SR leukemia,99.2 nM
same,TGI,SR leukemia,7.32 µM
same,GI50,UACC-257 melanoma,361 nM
same,TGI,UACC-257 melanoma,4.38 µM
same,GI50,IGROV1 ovarian,107 nM
same,TGI,IGROV1 ovarian,531 nM
same,GI50,SK-MEL-2 melanoma,173 nM
same,TGI,SK-MEL-2 melanoma,318 nM
same,GI50,HL-60(TB) leukemia,85.5 nM
same,TGI,HL-60(TB) leukemia,759 nM
same,GI50,HOP-62 NSCLC,104 nM
same,TGI,HOP-62 NSCLC,355 nM
same,GI50,SNB-75 CNS,126 nM
same,TGI,SNB-75 CNS,300 nM
same,GI50,LOX IMVI melanoma,55.4 nM
same,TGI,LOX IMVI melanoma,187 nM
